US11866708B2, “Tailored modulation of gene regulation programs via functional enhancer RNA” (Board of Regents, The University of Texas System, priority 2019, dated 2024)

Test system: TNFSF10
Experiment: TNFSF10 and eRNA expression with TIC10 treatment
Type: cell-based, human
Conditions: TIC10 treatment 48 hours; FIG. 6F left
Description: For the negative control experiment, 5 uM of TIC10 (SML1068, Sigma-Aldrich) was treated for 48 hrs to activate the apoptosis pathway by inducing the level of TNFSF10 expression.

## Cc1ccccc1CN1C(=O)C2=C(CCN(Cc3ccccc3)C2)N2CCN=C12 [TIC10]
  TNFSF10 expression: induced TNFSF10 expression significantly
  expression of the virus inducible eRNAs associated with the TNFSF10 gene: did not affect expression
